Laboratory results as given in US6156789A, “Method for treating abnormal cell proliferation in the brain” (Rhone-Poulenc Rorer S.A., priority 1998, dated 2000).
Values joined by “and” are separate entries in the source; they are usually repeats but may differ in a detail not shown here. Equal values may be shown once. Read-outs that look alike come from different tables or passages of the source.

Assay: Brain distribution of Compound A in mice with mammary C/16 adenocarcinomas (second method, brain tissue)
Assay type: in vivo, C3H/HeN female mice
Description: Mammary C/16 adenocarcinomas were implanted in C3H/HeN female mice. At least 7 days later, 4α,10β-diacetoxy-2α-benzoyloxy-5β,20-epoxy-1β-hydroxy-7β,8β-methylene-9-oxo-19-nor-11-taxen-13α-yl (2R,3S)-3-tert-butoxycarbonylamino-2-hydroxy-3-phenylpropionate ("Compound A") was administered to groups of female mice at doses of 9.5, 15.4, 24.8, 40 or 60.5 mg/kg by intravenous injection under 0.4 or 0.5 ml/injection over 15 seconds. The body weight and date of implantation were recorded for each mouse. Blood and tissue samples were taken 2, 5, 15, 30 and 45 minutes and 1, 4, 14, 24 and 48 hours, after administration. The plasma was separated from the blood samples at 4° C. and frozen immediately. The tissue and tumors were weighed and frozen immediately (-20° C.).
The plasma and tissue samples were then analyzed for the concentration of Compound A. The plasma was assayed by high pressure liquid chromatography with spectrophotometric detection. For the tissue, liver, heart, kidney, lung, spleen and tumor tissue, samples were assayed by a first method, while a second method was used for the brain tissue analyzed. In the first method, 0.2 g of tissue was combined with 2 ml of sodium phosphate buffer 0.1 M (pH:7) and homogenized. The homogenate was centrifuged and 0.5 ml of supernatant was injected into the chromatographic column. In the second method, 10 μl of standard solution was combined with 0.2 g of brain tissue. 2 ml of methanol/5% perchloric acid (50/50) were added and the mixture was homogenized. The homogenate was centrifuged and 100 μl of supernatant was injected into the chromatographic column.

[1] = 0.03 h, 40 μg/kg [sic], single mice
[2] = 0.03 h, 40 μg/kg [sic], single mice, 40 mg/kg, 1.8 min
[3] = 0.08 h, 40 μg/kg [sic], single mice, MEAN=b257
[4] = 0.08 h, 40 μg/kg [sic], single mice, MEAN=b257, 40 mg/kg, 4.8 min
[5] = 0.25 h, 40 μg/kg [sic], single mice
[6] = 0.25 h, 40 μg/kg [sic], single mice, 40 mg/kg, 15 min
[7] = 0.50 h, 40 μg/kg [sic], single mice
[8] = 0.75 h, 40 μg/kg [sic], single mice, MEAN=b278
[9] = 1 h, 40 μg/kg [sic], single mice
[10] = 1 h, 40 μg/kg [sic], single mice, 40 mg/kg, 60 min
[11] = 4 h, 40 μg/kg [sic], single mice
[12] = 4 h, 40 μg/kg [sic], single mice, 40 mg/kg, 240 min
[13] = 14 h, 40 μg/kg [sic], single mice
[14] = 24 h, 40 μg/kg [sic], single mice
[15] = 24 h, 40 μg/kg [sic], single mice, 40 mg/kg, 1440 min
[16] = 48 h, 40 μg/kg [sic], single mice

SMILES: CC(=O)O[C@H]1C(=O)[C@]23C[C@H]2C[C@H]2OC[C@@]2(OC(C)=O)[C@H]3[C@H](OC(=O)c2ccccc2)[C@]2(O)C[C@H](OC(=O)[C@H](O)[C@@H](NC(=O)OC(C)(C)C)c3ccccc3)C(C)=C1C2(C)C [Compound A, 4α,10β-diacetoxy-2α-benzoyloxy-5β,20-epoxy-1β-hydroxy-7β,8β-methylene-9-oxo-19-nor-11-taxen-13α-yl (2R,3S)-3-tert-butoxycarbonylamino-2-hydroxy-3-phenylpropionate]
- brain and plasma AUCs at 4 hours compared (40 mg/kg i.v.): similar
- 0 to infinity AUC in brain tissue compared with plasma (40 mg/kg i.v., mouse): ten times that observed for plasma
- % of DOSE (brain) [1]: 0.42% and 0.53% and 0.47% and 0.36% and 0.45%
- AMOUNT In TISSUE (brain) [1]: 4.21 µg and 5.17 µg and 4.34 µg and 3.55 µg and 4.32 µg
- Brain CONC. [2]: 11.32 µg/g and 9.51 µg/g and 7.64 µg/g and 9.57 µg/g
- RATIO BRAIN/PLASMA [2]: 0.22 and 0.15
- Percentage of Compound A (of dose) in Brain (0.033 h, 40 mg/kg): 0.19%
- % of DOSE (brain) [3]: 0.60% and 0.49% and 0.58% and 0.56%
- AMOUNT In TISSUE (brain) [3]: 6.14 µg and 4.62 µg and 5.62 µg and 5.46 µg
- Brain CONC. [4]: 10.69 µg/g and 13.46 µg/g and 12.56 µg/g
- RATIO BRAIN/PLASMA [4]: 0.27 and 0.29 and 0.34
- % of DOSE (brain) [5]: 0.58% and 0.52% and 0.67% and 0.66% and 0.61%
- AMOUNT In TISSUE (brain) [5]: 5.38 µg and 4.88 µg and 6.68 µg and 6.07 µg and 5.75 µg
- Brain CONC. [6]: 11.16 µg/g and 15.37 µg/g and 13.12 µg/g and 13.21 µg/g
- RATIO BRAIN/PLASMA [6]: 0.53 and 0.50 and 0.66 and 0.57
- % of DOSE (brain) [7]: 0.53% and 0.45% and 0.42% and 0.39%
- AMOUNT In TISSUE (brain) [7]: 4.78 µg and 4.56 µg and 3.87 µg and 3.53 µg and 4.19 µg
- RATIO BRAIN/PLASMA (0.50 h, 40 μg/kg [sic], single mice, 40 mg/kg, 30 min): 0.69 and 0.75
- % of DOSE (brain) [8]: 0.38% and 0.53% and 0.50% and 0.45%
- AMOUNT In TISSUE (brain) [8]: 3.32 µg and 4.99 µg and 4.49 µg and 3.92 µg and 4.18 µg
- Brain CONC. (0.75 h, 40 μg/kg [sic], single mice, MEAN=b278, 40 mg/kg, 45 min): 11.46 µg/g and 9.98 µg/g and 9.00 µg/g and 9.5 µg/g
- % of DOSE (brain) [9]: 0.54% and 0.34% and 0.33% and 0.43% and 0.41%
- AMOUNT In TISSUE (brain) [9]: 5.14 µg and 3.35 µg and 3.14 µg and 4.22 µg and 3.96 µg
- Brain CONC. [10]: 7.23 µg/g and 7.33 µg/g and 9.05 µg/g and 8.77 µg/g
- RATIO BRAIN/PLASMA [10]: 1.18 and 1.12
- Percentage of Compound A (of dose) in Brain (1 h, 40 mg/kg): 0.41%
- % of DOSE (brain) [11]: 0.34% and 0.45% and 0.36% and 0.40% and 0.39%
- AMOUNT In TISSUE (brain) [11]: 3.27 µg and 4.27 µg and 3.40 µg and 3.67 µg and 3.65 µg
- Brain CONC. [12]: 10.24 µg/g and 7.88 µg/g and 8.38 µg/g and 8.47 µg/g
- RATIO BRAIN/PLASMA [12]: 2.46 and 2.7 and 2.71
- Percentage of Compound A (of dose) in Brain (4 h, 40 mg/kg): 0.39%
- % of DOSE (brain) [13]: 0.40% and 0.44% and 0.28% and 0.38%
- AMOUNT In TISSUE (brain) [13]: 3.73 µg and 4.06 µg and 2.46 µg and 3.65 µg and 3.48 µg
- Brain CONC. (14 h, 40 μg/kg [sic], single mice, 40 mg/kg, 840 min): 8.77 µg/g and 5.77 µg/g and 8.23 µg/g and 7.84 µg/g
- % of DOSE (brain) [14]: 0.39% and 0.29% and 0.33%
- AMOUNT In TISSUE (brain) [14]: 3.78 µg and 2.58 µg and 2.79 µg and 3.08 µg and 3.06 µg
- Brain CONC. [15]: 6.00 µg/g and 6.20 µg/g and 7.03 µg/g and 6.95 µg/g
- RATIO BRAIN/PLASMA [15]: 20.67 and 20.68
- Percentage of Compound A (of dose) in Brain (24 h, 40 mg/kg): 0.33%
- % of DOSE (brain) [16]: 0.15% and 0.21% and 0.20% and 0.19%
- AMOUNT In TISSUE (brain) [16]: 1.55 µg and 2.02 µg and 2.13 µg and 1.97 µg and 1.92 µg
- Brain CONC. (48 h, 40 μg/kg [sic], single mice, 40 mg/kg, 2880 min): 4.54 µg/g and 4.77 µg/g and 4.48 µg/g and 4.37 µg/g
- Percentage of Compound A (of dose) in Brain (48 h, 40 mg/kg): 0.19%
- AUC 0-4 Hours, Brain (dose = 40 mg/kg): 36.3 µg·h/g
- AUC 0 to Infinity, Brain (dose = 40 mg/kg): 627 µg·h/g
- t 1/2, Brain (dose = 40 mg/kg): 47.6 h
- half-life (mouse, brain, iv, 40 mg/kg, 40 mg/kg i.v., read-out: half-life of the distribution phase, brain (converted)): 0.07 h
- concentration at 0.03 h (mouse, brain, iv, 40 mg/kg, 0.03 h, 40 μg/kg [sic], single mice, read-out: Brain CONC.): 9800 ng/g
- concentration at 0.08 h (mouse, brain, iv, 40 mg/kg, 0.08 h, 40 μg/kg [sic], single mice, MEAN=b257, read-out: Brain CONC.): 13500 ng/g
- concentration at 0.25 h (mouse, brain, iv, 40 mg/kg, 0.25 h, 40 μg/kg [sic], single mice, read-out: Brain CONC.): 13200 ng/g
- concentration at 0.5 h (mouse, brain, iv, 40 mg/kg, 0.50 h, 40 μg/kg [sic], single mice, read-out: Brain CONC.): 11200 ng/g
- concentration at 0.75 h (mouse, brain, iv, 40 mg/kg, 0.75 h, 40 μg/kg [sic], single mice, MEAN=b278, read-out: Brain CONC.): 7540 ng/g
- concentration at 1 h (mouse, brain, iv, 40 mg/kg, 1 h, 40 μg/kg [sic], single mice, read-out: Brain CONC.): 11500 ng/g
- concentration at 4 h (mouse, brain, iv, 40 mg/kg, 4 h, 40 μg/kg [sic], single mice, read-out: Brain CONC.): 7390 ng/g
- concentration at 14 h (mouse, brain, iv, 40 mg/kg, 14 h, 40 μg/kg [sic], single mice, read-out: Brain CONC.): 8570 ng/g
- concentration at 24 h (mouse, brain, iv, 40 mg/kg, 24 h, 40 μg/kg [sic], single mice, read-out: Brain CONC.): 8580 ng/g
- concentration at 48 h (mouse, brain, iv, 40 mg/kg, 48 h, 40 μg/kg [sic], single mice, read-out: Brain CONC.): 3670 ng/g
- half-life (mouse, brain, iv, 40 mg/kg, read-out: t 1/2, Brain (converted)): 47.6 h
- Tmax (mouse, brain, iv, 40 mg/kg i.v., read-out: time of maximum concentration, brain): 15 min
- Kp at 0.03 h (mouse, brain/plasma, iv, 40 mg/kg, 0.03 h, 40 μg/kg [sic], single mice, read-out: RATIO BRAIN/PLASMA): 0.2
- Kp at 0.08 h (mouse, brain/plasma, iv, 40 mg/kg, 0.08 h, 40 μg/kg [sic], single mice, MEAN=b257, read-out: RATIO BRAIN/PLASMA): 0.47
- Kp at 0.25 h (mouse, brain/plasma, iv, 40 mg/kg, 0.25 h, 40 μg/kg [sic], single mice, read-out: RATIO BRAIN/PLASMA): 0.6
- Kp at 0.5 h (mouse, brain/plasma, iv, 40 mg/kg, 0.50 h, 40 μg/kg [sic], single mice, read-out: RATIO BRAIN/PLASMA): 0.93
- Kp at 1 h (mouse, brain/plasma, iv, 40 mg/kg, 1 h, 40 μg/kg [sic], single mice, read-out: RATIO BRAIN/PLASMA): 1.42
- Kp at 4 h (mouse, brain/plasma, iv, 40 mg/kg, 4 h, 40 μg/kg [sic], single mice, read-out: RATIO BRAIN/PLASMA): 2.84
- Kp at 24 h (mouse, brain/plasma, iv, 40 mg/kg, 24 h, 40 μg/kg [sic], single mice, read-out: RATIO BRAIN/PLASMA): 20.7
